Here are results for two molecules from paper PMC6009892, “A novel series of pyrazole-platinum(II) complexes as potential anti-cancer agents that induce cell cycle arrest and apoptosis in breast cancer cells” (Journal of Enzyme Inhibition and Medicinal Chemistry, 2018).

For assay [1], the system named is human G1/S-specific cyclin D1 in MCF-7 cells. The experiment in a line: Cyclin D1 ELISA in cell lysates, MCF-7. The following applies: MCF-7, 20 μM, 24 h; untreated cells 2.6 ng/ml. The assay is classed as cell-based. The protocol: (§1) Cell lysates: Briefly, trypsinised cells were washed three times with cold PBS and centrifuged at 1000 g for 5 min at 4 °C. The cells (1 × 10^6) were suspended in lysis buffer for whole cell lysates. After centrifugation, the supernatants were frozen immediately at −70 °C. The concentration of human G1/S-specific cyclin D1 was measured. Cells without addition of compounds were treated as controls.
(§2) Determination of human G1/S-specific cyclin D1: The high sensitivity assay kit (EIAab) was used to determine the concentration of human G1/S-specific cyclin D1 in cell lysates. The microtiter plate provided in this kit has been pre-coated with an antibody specific to cyclin D1. Standards and samples were added to the appropriate microtiter plate wells. After 2 h of incubation at 37 °C, the plate was incubated with biotin-conjugated antibody for 1 h at 37 °C. Then microplate wells were aspirated and washed three times and then incubated with avidin conjugated to horseradish peroxidase (HRP). Then, a TMB substrate solution was added to each well. […] The enzyme–substrate reaction was terminated by the addition of a sulfuric acid solution and the color change was measured spectrophotometrically at a wavelength of 450 nm ± 2 nm. The concentration of cyclin D1 in the samples was determined by comparing the O.D. of the samples to the standard curve.
In general terms: An ELISA detects its analyte on a solid surface through an enzyme-linked reagent.

In assay [2] the test system is human G1/S-specific cyclin D1 in MDA-MB-231 cells. The experiment in a line: Cyclin D1 ELISA in cell lysates, MDA-MB-231. The assay is classed as cell-based. As to conditions: MDA-MB-231, 20 μM, 24 h. The protocol:
as §1, §2

Take `Cc1cc(C)[n+]([Pt-2]2([n+]3c(C)cc(C)n3CO)[N](c3ccc(C(=N)N)cc3)N=[N+](c3ccc(C(=N)N)cc3)[Pt-2]([n+]3c(C)cc(C)n3CO)([n+]3c(C)cc(C)n3CO)[N](c3ccc(C(=N)N)cc3)N=[N+]2c2ccc(C(=N)N)cc2)n1CO.Cl.Cl.Cl.Cl.O.O` [PtPz1, [Pt2(N-hydroxymethyl-3,5-dimethylpyrazole)4(berenil)2]·4HCl·2H2O]: the “concentration of cyclin D1” value in assay [1] came out at 0.8 ng/mL.
On to `Cc1ccn[nH]1.Cc1ccn[nH]1.Cc1ccn[nH]1.Cc1ccn[nH]1.Cl.Cl.Cl.Cl.N=C(N)c1ccc(N=N[N]([Pt])c2ccc(C(=N)N)cc2)cc1.N=C(N)c1ccc(N=N[N]([Pt])c2ccc(C(=N)N)cc2)cc1.O.O` [PtPz5, [Pt2(5-methylpyrazole)4(berenil)2]·4HCl·2H2O], for which, in assay [2], the “concentration of cyclin D1” value was 0.7 ng/mL.
